≈ marks a conversion by molar mass, not a printed value. Read-outs that look alike come from different tables or passages of the source.
Columns and labels:
MSSA = test: MIC, broth microdilution, clinical isolates: MSSA; assay type: cell-based; conditions: Staphylococcus aureus; for MIC90: read-out: MIC90
Experimental: (§1) To assess the MICs for antibiotic susceptibility, Gram-positive bacteria isolated from human clinical specimens were obtained from several general hospitals in Seoul, Korea, during 2002–2018. Staphylococcus aureus Giorgio and Streptococcus pneumoniae ATCC49619 were used to test in vivo efficacies against […], in mice.
(§2) The MICs of the antimicrobial agents were determined by a twofold microdilution broth method, as described by the Clinical and Laboratory Standards Institute. Briefly, test organisms were grown on Mueller–Hinton agar (MHA, BD Difco, Sparks, MD, USA) plates, subcultured into cation-adjusted Mueller–Hinton broth (CAMHB, BD Difco, Sparks, MD, USA), and incubated for 18 h at 35 °C. For S. pneumoniae culture, 5% sheep blood (Hanil Comed, Seongnam, Korea) was added. The cultured bacteria were diluted using phosphate-buffered saline (PBS) to achieve a bacterial cell density of approximately 5 × 10^6 CFU/mL. All test organisms were loaded into 96-well plates containing serial dilutions of the antimicrobial agents to achieve a concentration of 5 × 10^4 CFU/well. The plates were incubated at 35 °C for 18–20 h and examined for bacterial growth.

VRE = test: MIC, broth microdilution, clinical isolates: VRE; assay type: cell-based, vancomycin-resistant Enterococcus; conditions: for MIC50: read-out: MIC50
Experimental: as §1, §2

[1] = test system: Vancomycin-sensitive E. faecalis; test: MIC, broth microdilution, clinical isolates: vancomycin-sensitive E. faecalis; assay type: cell-based, Enterococcus faecalis; conditions: Enterococcus faecalis, 32 clinical isolates; for MIC50: read-out: MIC50; for MIC90: read-out: MIC90
Experimental: as §1, §2

S. pneumoniae = test: MIC, broth microdilution, clinical isolates: S. pneumoniae; assay type: cell-based, Streptococcus pneumoniae; conditions: for MIC50: read-out: MIC50
Experimental: as §1, §2

[2] = test system: Vancomycin-sensitive E. faecium; test: MIC, broth microdilution, clinical isolates: vancomycin-sensitive E. faecium; assay type: cell-based, Enterococcus faecium; conditions: Enterococcus faecium, 32 clinical isolates; for MIC50: read-out: MIC50; for MIC90: read-out: MIC90
Experimental: as §1, §2

MRSA = test: MIC, broth microdilution, clinical isolates: MRSA; assay type: cell-based, Staphylococcus aureus; conditions: Staphylococcus aureus, MRSA, 42 clinical isolates; for MIC50: read-out: MIC50; for MIC90: read-out: MIC90
Experimental: as §1, §2

[3] = test system: CNS (coagulase-negative staphylococci); test: MIC, broth microdilution, clinical isolates: CNS; assay type: cell-based; conditions: 31 clinical isolates; for MIC50: read-out: MIC50; for MIC90: read-out: MIC90
Experimental: as §1, §2

[4] = highly protein-bound antibacterial agents in clinical use; cited from earlier work
S. pneumoniae ATCC49619 = test: Time-kill assay, S. pneumoniae ATCC49619; assay type: cell-based, Streptococcus pneumoniae; conditions: 2× and 4× MIC, 24 h
Experimental: (§3) Time-kill analysis was performed by the NCCLS M26-A method. The test organisms (S. aureus Giorgio, S. pneumoniae ATCC49619, MRSA CCARM 3167, and VRE 3) incubated in CAMHB for 18 h at 35 °C were diluted to 10^5 CFU/mL with fresh CAMHB, and the diluted cultures were preincubated for 2 h. For S. pneumoniae culture, 5% sheep blood (Hanil Comed, Seongnam, Korea) was added. […] Culture aliquots (0.1 mL) were removed after 0, 2, 4, 6 and 24 h of incubation, and serial 10-fold dilutions were prepared in saline as needed. The numbers of viable cells were determined on drug-free MHA plates after 20 h of incubation. A compound was considered bactericidal if the original inoculum was reduced by 3 log CFU/mL (99.9%) at each concentration or was considered bacteriostatic if the inoculum was reduced by 0–3 log CFU/mL.

MRSA CCARM 3167 = test: Time-kill assay, MRSA CCARM 3167; assay type: cell-based, Staphylococcus aureus; conditions: 2× and 4× MIC, 24 h
Experimental: as §3

S. aureus Giorgio = test: Time-kill assay, S. aureus Giorgio; assay type: cell-based, Staphylococcus aureus; conditions: 2× and 4× MIC, 24 h
Experimental: as §3

VRE 3 = test: Time-kill assay, VRE 3; assay type: cell-based, vancomycin-resistant Enterococcus; conditions: 2× and 4× MIC, 24 h
Experimental: as §3

[5] = 26 clinical isolates, read-out: MIC50
[6] = Enterococcus, VRE, 46 clinical isolates
[7] = Enterococcus, VRE, 46 clinical isolates, read-out: MIC90
[8] = Streptococcus pneumoniae, 27 S. pneumoniae isolates, read-out: MIC90
[9] = Streptococcus pneumoniae, 27 clinical isolates

Row | Compound | MIC50 (MSSA; [5]) | MIC90 (MSSA; 26 clinical isolates) | MIC50 (VRE; [6]) | MIC90 (VRE; [7]) | MIC50 [1] | MIC90 [1] | MIC90 (S. pneumoniae; 27 clinical isolates) | MIC90 (S. pneumoniae; [8]) | MIC50 (S. pneumoniae; [9]) | MIC50 [2] | MIC90 [2] | MIC50 (MRSA) | MIC90 (MRSA) | MIC50 [3] | MIC90 [3] | also measured
1 | CO[C@@]1(NC(=O)Cc2cccs2)C(=O)N2C(C(=O)O)=C(COC(N)=O)CS[C@@H]21 [Cefoxitin] | 4 µg/mL (≈ 9.36 µM) | 4 µg/mL (≈ 9.36 µM) | > 32 µg/mL | > 32 µg/mL | > 32 µg/mL | > 32 µg/mL | >32 µg/mL | > 32 µg/mL | > 32 µg/mL | > 32 µg/mL | > 32 µg/mL |  |  |  |  | 
2 | CC(C)(O/N=C(\C(=O)N[C@@H]1C(=O)N2C(C(=O)[O-])=C(C[n+]3ccccc3)CS[C@H]12)c1csc(N)n1)C(=O)O [Ceftazidime] | 8 µg/mL (≈ 14.6 µM) | 16 µg/mL (≈ 29.3 µM) | > 32 µg/mL | > 32 µg/mL | > 32 µg/mL | > 32 µg/mL | >32 µg/mL | > 32 µg/mL | > 32 µg/mL | > 32 µg/mL | > 32 µg/mL | > 32 µg/mL | > 32 µg/mL | 32 µg/mL (≈ 58.5 µM) | > 32 µg/mL | 
3 | CCCCCCCCCC(=O)N[C@@H](Cc1c[nH]c2ccccc12)C(=O)N[C@H](CC(N)=O)C(=O)N[C@@H](CC(=O)O)C(=O)N[C@@H]1C(=O)NCC(=O)N[C@@H](CCCN)C(=O)N[C@@H](CC(=O)O)C(=O)N[C@H](C)C(=O)N[C@@H](CC(=O)O)C(=O)NCC(=O)N[C@H](CO)C(=O)N[C@@H]([C@H](C)CC(=O)O)C(=O)N[C@@H](CC(=O)c2ccccc2N)C(=O)O[C@@H]1C [Daptomycin] | 2 µg/mL (≈ 1.23 µM) | 4 µg/mL (≈ 2.47 µM) | 4 µg/mL (≈ 2.47 µM) |  | 4 µg/mL (≈ 2.47 µM) | 8 µg/mL (≈ 4.94 µM) | 8 µg/mL (≈ 4.94 µM) | 8 µg/mL (≈ 4.94 µM) | 2 µg/mL (≈ 1.23 µM) | 4 µg/mL (≈ 2.47 µM) | 8 µg/mL (≈ 4.94 µM) | 2 µg/mL (≈ 1.23 µM) | 4 µg/mL (≈ 2.47 µM) | 2 µg/mL (≈ 1.23 µM) | 4 µg/mL (≈ 2.47 µM) | MIC90 (VRE; 46 clinical isolates): 8 µg/mL (≈ 4.94 µM); MIC90 (VRE; Enterococcus, 46 VRE isolates, read-out: MIC90): 8 µg/mL (≈ 4.94 µM)
4 | CNC(C)C1CCC(N)C(OC2C(N)CC(N)C(OC3OCC(C)(O)C(NC)C3O)C2O)O1 (centres unmarked) [Gentamicin] | 1 µg/mL (≈ 2.09 µM) | > 32 µg/mL | > 32 µg/mL | > 32 µg/mL | > 32 µg/mL | > 32 µg/mL |  |  | 32 µg/mL (≈ 67 µM) | > 32 µg/mL | > 32 µg/mL | 32 µg/mL (≈ 67 µM) | > 32 µg/mL | > 32 µg/mL | > 32 µg/mL | MIC90 (S. pneumoniae; Streptococcus pneumoniae, 27 clinical isolates, read-out: MIC90): > 32 µg/mL
5 | C[C@H]1COc2c(N3CCN(C)CC3)c(F)cc3c(=O)c(C(=O)O)cn1c23 [Levofloxacin] | 0.25 µg/mL (≈ 0.692 µM) | 0.5 µg/mL (≈ 1.38 µM) | > 32 µg/mL | > 32 µg/mL | 2 µg/mL (≈ 5.53 µM) | 32 µg/mL (≈ 88.6 µM) | 16 µg/mL (≈ 44.3 µM) | 16 µg/mL (≈ 44.3 µM) | 0.5 µg/mL (≈ 1.38 µM) | 16 µg/mL (≈ 44.3 µM) | 32 µg/mL (≈ 88.6 µM) | 16 µg/mL (≈ 44.3 µM) | > 32 µg/mL | 8 µg/mL (≈ 22.1 µM) | > 32 µg/mL | 
6 | C[C@@H](O)[C@H]1C(=O)N2C(C(=O)O)=C(S[C@@H]3CN[C@H](C(=O)N(C)C)C3)[C@H](C)[C@H]12 [Meropenem] |  | 0.25 µg/mL (≈ 0.652 µM) | > 32 µg/mL | > 32 µg/mL | 4 µg/mL (≈ 10.4 µM) | 16 µg/mL (≈ 41.7 µM) | 4 µg/mL (≈ 10.4 µM) | 4 µg/mL (≈ 10.4 µM) | 0.5 µg/mL (≈ 1.3 µM) | > 32 µg/mL | > 32 µg/mL |  |  |  |  | MIC50 (MSSA): 0.125 µg/mL (≈ 0.326 µM)
7 | Cc1onc(-c2ccccc2)c1C(=O)N[C@@H]1C(=O)N2[C@@H]1SC(C)(C)[C@@H]2C(=O)O [Oxacillin] | 0.5 µg/mL (≈ 1.25 µM) | 1 µg/mL (≈ 2.49 µM) |  |  |  |  |  |  |  |  |  | > 32 µg/mL | > 32 µg/mL |  |  | 
8 | CO/N=C(\C(=O)N[C@@H]1C(=O)N2C(C(=O)O)=C(CSc3nc(=O)c(=O)[nH]n3C)CS[C@H]12)c1csc(N)n1 [ceftriaxone] |  |  |  |  |  |  |  |  |  |  |  |  |  |  |  | protein-bound [4]: > 90%
9 | O=C(O)c1cn(C2CC2)c2cc(N3CCNCC3)c(F)cc2c1=O [ciprofloxacin] |  |  |  |  |  |  |  |  |  |  |  |  |  |  |  | time-kill activity (S. pneumoniae ATCC49619): bactericidal (considered bactericidal if the original inoculum was reduced by 3 log CFU/mL (99.9%) at each concentration); time-kill activity (MRSA CCARM 3167): bactericidal (considered bactericidal if the original inoculum was reduced by 3 log CFU/mL (99.9%) at each concentration); time-kill activity (S. aureus Giorgio): bactericidal (considered bactericidal if the original inoculum was reduced by 3 log CFU/mL (99.9%) at each concentration); time-kill activity (VRE 3): bactericidal (considered bactericidal if the original inoculum was reduced by 3 log CFU/mL (99.9%) at each concentration)
10 | teicoplanin |  |  |  |  |  |  |  |  |  |  |  |  |  |  |  | protein-bound [4]: > 90%
